Inhibition and CC50 data for nine compounds are collected here from patent US10202353B2, “Therapeutic compounds” (Gilead Sciences, Inc., priority 2014, dated 2019).

For orientation: inhibition means the share of the control response that was lost under treatment. Broadly, the CC50 is the concentration that lowers cell viability or growth by half. Read a high CC50 as better tolerance by the cells.

Series [1] relates to HIV-IIIb. The series is described as follows: Test A: Antiviral assay in MT4 Cells. Format: cell-based, HIV-1. The note with it: Human immunodeficiency virus 1, 120 h; 2 μM drug concentration; MT4 cells infected with HIV-IIIb, 5 days; calculated from dose response curve; values normalized to 100% where greater than 100; read-out: % Inhibition at 2 μM (percent inhibition of virus-induced cell killing). Here is the method: (§1) For the antiviral assay, 40 μL of a concentration required to achieve a final effective 1× test concentration of 3-fold serially diluted compound in culture medium with 10% FBS was added to each well of a 384-well plate (10 concentrations) in quadruplicate. MT4 cells were next mixed with HIV-IIIb at an m.o.i of 0.003 for 1 hour, after which time 35 μL of virus/cell mixture (2000 cells) was immediately added to each well containing 40 μL of diluted compound. The plates were then incubated at 37° C. for 5 days. After 5 days of incubation, 25 μl of 2× concentrated CellTiter-Glo™ Reagent (catalog # G7571, Promega Biosciences, Inc., Madison, Wis.) was added to each well containing MT-4 cells. Cell lysis was carried out by incubating at room temperature for 10 min and then chemiluminescence was read. EC50 values were calculated as the compound concentration that caused a 50% decrease in luminescence signal, a measure of HIV-1 replication. Percent inhibition of virus-induced cell killing calculated from the dose response curve at 2 μM drug concentration is shown in the table below.

Series [2] can be described thus: Test B: Cytotoxicity Assay. Format: cell-based. The note with it: human, uninfected MT4 cells, same protocol as Test A. On the procedure: as §1, with “below. Compound cytotoxicity and the corresponding CC50 values was determined using the same protocol as described in the antiviral assay (Test A) except that uninfected cells were used.” for “below.”

Consider `CN(C(=O)[C@H](Cc1cc(F)cc(F)c1)NC(=O)Cn1nc(C(F)(F)F)c2c1C(F)(F)C1CC21)c1ccc2c(c1)CNC2=O` (stereo partly drawn) [Compound 34, (2S)-2-(2-(5,5-difluoro-3-(trifluoromethyl)-3b,4,4a,5-tetrahydro-1H-cyclopropa[3,4]cyclopenta[1,2-c]pyrazol-1-yl)acetamido)-3-(3,5-difluorophenyl)-N-methyl-N-(1-oxoisoindolin-5-yl)propanamide], for which, in series [1], the inhibition at 2 µM is 97%. In series [2], the half-maximal cytotoxic concentration (CC50) at 5 days is over 53 µM.
In the same order, the values of `CN(C(=O)[C@H](Cc1cccc(C(F)(F)F)c1)NC(=O)Cn1nc(C(F)(F)F)c2c1CCCC2)c1ccccc1` [Compound 21, (S)—N-methyl-N-phenyl-2-(2-(3-(trifluoromethyl)-4,5,6,7-tetrahydro-1H-indazol-1-yl)acetamido)-3-(3-(trifluoromethyl)phenyl)propanamide] are 0% and 11.3 µM.
In the same order, the values of `CN(C(=O)[C@H](Cc1cccc([N+](=O)[O-])c1)NC(=O)Cn1nc(C(F)(F)F)c2c1CCCC2)c1ccccc1` [Compound 17, (S)—N-methyl-3-(3-nitrophenyl)-N-phenyl-2-(2-(3-(trifluoromethyl)-4,5,6,7-tetrahydro-1H-indazol-1-yl)acetamido)propanamide] are 0% and 19.2 µM.
For `COc1ccc(N(C)C(=O)[C@H](Cc2cc(F)cc(F)c2)NC(=O)Cn2nc(C(F)(F)F)c3c2CC(C)CC3)cc1` (stereo partly drawn) [Compound 25, (2S)-3-(3,5-difluorophenyl)-N-(4-methoxyphenyl)-N-methyl-2-(2-(6-methyl-3-(trifluoromethyl)-4,5,6,7-tetrahydro-1H-indazol-1-yl)acetamido)propanamide] the same measures were 100% and 11.1 µM.
`CN(C(=O)[C@H](Cc1cccc(Br)c1)NC(=O)Cn1nc(C(F)(F)F)c2c1CCCC2)c1ccccc1` [Compound 19, (S)-3-(3-bromophenyl)-N-methyl-N-phenyl-2-(2-(3-(trifluoromethyl)-4,5,6,7-tetrahydro-1H-indazol-1-yl)acetamido)propanamide]: in series [1], the inhibition at 2 µM was 27%. The compound further gave a CC50 at 5 days in series [2] of 17.3 µM.
In the same order, the values of `COc1ccc(N(C)C(=O)[C@H](Cc2cc(F)cc(F)c2)NC(=O)Cn2nc(C(F)(F)F)c3c2CCC(=O)C3)cc1` [Compound 28, (S)-3-(3,5-difluorophenyl)-N-(4-methoxyphenyl)-N-methyl-2-(2-(5-oxo-3-(trifluoromethyl)-4,5,6,7-tetrahydro-1H-indazol-1-yl)acetamido)propanamide] are 76% and 37.2 µM.
Turning to `COc1ccc(N(C)C(=O)[C@H](Cc2cc(F)cc(F)c2)NC(=O)Cn2nc(C(F)(F)F)c3c2CCCC3)cc1` [Compound 4, (S)-3-(3,5-difluorophenyl)-N-(4-methoxyphenyl)-N-methyl-2-(2-(3-(trifluoromethyl)-4,5,6,7-tetrahydro-1H-indazol-1-yl)acetamido)propanamide], in series [1], the inhibition at 2 µM was 100%. Moreover, in series [2], the half-maximal cytotoxic concentration (CC50) at 5 days was 12.5 µM.
For `CN(C(=O)[C@H](CC1CCOCC1)NC(=O)Cn1nc(C(F)(F)F)c2c1CCCC2)c1ccccc1` [Compound 20, (S)—N-methyl-N-phenyl-3-(tetrahydro-2H-pyran-4-yl)-2-(2-(3-(trifluoromethyl)-4,5,6,7-tetrahydro-1H-indazol-1-yl)acetamido)propanamdide] the same measures were 0% and over 53 µM.
Take `COc1ccc(N(C)C(=O)[C@H](Cc2cc(F)cc(F)c2)NC(=O)Cn2nc(C(F)(F)F)c3c2CCC2(C3)OCCO2)cc1` [Compound 27]: the inhibition at 2 µM in series [1] was 32%. The CC50 at 5 days in series [2] amounted to 19.9 µM.
